Laboratory results reported in paper PMC4514850, “A Novel TGR5 Activator WB403 Promotes GLP-1 Secretion and Preserves Pancreatic β-Cells in Type 2 Diabetic Mice” (PLoS ONE, 2015).

Columns and labels:
[1] = system: primary enterocytes; assay: active GLP-1 secretion in primary enterocytes; format: cell-based; details: Fig 1G
Protocol: Endocrine differentiation was induced by seeding NCI-H716 cells in plates coated with Matrigel (Becton Dickinson). Cells were washed with RPMI-1640 medium without FBS and incubated in the same medium containing indicated compounds at 10 μmol/l. The condition medium was collected after 30 min. GLP-1 secretion in MIN6 or primary enterocytes was conducted similarly. To isolate primary enterocytes, ileum or colon was cut into 2 cm length, rinsed by PBS (pH7.2∼7.4) before dispersed in 10 mmol/l EDTA/PBS (pH7.4) for 15 min at room temperature, followed by pipetting up and down. Enterocytes were collected by filtration through a 70 μm cell strainer. To study the effect of WB403 on GLP-1 secretion in vivo, mice in group of three were fasted overnight and orally received 0, 50, 100 mg/kg of WB403 dispersed in 0.5% CMC with a DPP-4 inhibitor (5 mg/kg). There were 5 animals in each group. 2 g/kg glucose was administrated 30 min later and blood was collected 10 min after glucose challenge.
The GLP-1 (active) ELISA kit was purchased from Millipore, and insulin ELISA kit was from Mercodia. For quantitative determination of cAMP, a competitive enzyme immunoassay kit from R&D system was used. All immunoassays were performed according to manufacturers’ instructions.

[2] = system: normal mice; assay: oral glucose tolerance test in normal mice; format: in vivo; details: 4 g/kg glucose, oral 50, 100 mg/kg 30 min before load
Protocol: (§1) Mice were fasted overnight (14 h) before glucose tolerance tests. Normal mice received a 4 g/kg glucose challenge and for diabetic mice it’s 2 g/kg. WB403 at 50, 100 mg/kg, or sitagliptin at 100 mg/kg were administrated orally 30 min prior to glucose load (n = 10). For vehicle group, 0.5% CMC was administrated. Blood glucose levels were measured from tail bleeds with a glucometer (Roche, Accu-Chek Performa) at specified time points. Animals were treated and assessed in the order of the vehicle, WB403 50, 100 mg/kg and sitagliptin 100 mg/kg group.
(§2) Fig 2 Effects of WB403 on glucose tolerance during OGTT in normal and diabetic mice. OGTT time course and AUC in normal mice (A, B), HFD/STZ mice (C, D) and db/db mice (E, F). Values represent mean ± SD (n = 10). *p<0.05, **p<0.01, ***p<0.001 vs. vehicle group. Asterisks in A, C and E reflect significance between WB403 100 mg/kg and vehicle group.

[3] = system: HFD/STZ mice; assay: oral glucose tolerance test in HFD/STZ mice; format: in vivo; details: 2 g/kg glucose, oral 50, 100 mg/kg 30 min before load
Protocol: (§3) For generation of nongenetic mice model of type 2 diabetes, ICR mice were fed with high fat diet (HFD, with 60% fat, Research Diets) for three weeks, then fasted for 5 h before receiving a single dose of streptozotocin (STZ, Sigma) intraperitoneally (ip) at 80 mg/kg to induce partial insulin deficiency. […] Diabetes was assessed using conventional criteria. Mice with similar degree of hyperglycemia and body weight were randomized into various groups in order to get a similar average PBG in each group.
as §1, §2

[4] = system: db/db mice; assay: oral glucose tolerance test in db/db mice; format: in vivo; details: 2 g/kg glucose, oral 50, 100 mg/kg 30 min before load
Protocol: Five-week old male ICR mice and db/db (C57BL BKS cg-M+/+ lepr-/-) mice were purchased from Shanghai SLAC Laboratory Animal Co., Ltd. (Shanghai, China). Mice were housed 4–5 per cage and allowed access to normal chow diet and autoclaved water freely. They were fed at a constant room temperature (25°C) with a 12-h light (7:00 AM)/dark (7:00 PM) cycle. All the mice were monitored at least daily, and no adverse events were observed. In general, the db/db mice show a high food intake at 4-week old and become obese and develop type 2 diabetes at 8-week age. Postprandial 2 h blood glucose was assessed and mice with the similar degree of hyperglycemia and body weight were randomized into different groups in order to get a similar average PBG in each group.
as §1
Fig 2 Effects of WB403 on glucose tolerance during OGTT in normal and diabetic mice. […]

[5] = system: HFD/STZ mice; assay: 8-week treatment of HFD/STZ mice; format: in vivo
Protocol: as §3
Diabetic mice in group of four were treated by gavage with vehicle (0.5% carboxymethylcellulose, CMC, Sigma), WB403 50, 100 mg/kg or sitagliptin at 100 mg/kg daily for 4 weeks in db/db mice (n = 5 with chow diet), and 8 weeks in HFD/STZ mice (n = 8 with HFD, additional normal mice group with chow diet). During the entire dosing period, body weight, food intake and water intake were monitored three times per week, while FBG and PBG were measured weekly. Overnight fasted mice received an oral glucose challenge at 2 g/kg and postprandial 2 h blood glucose was measured. Animals were treated and assessed in the order of the vehicle, WB403 50, 100 mg/kg and sitagliptin 100 mg/kg group.
Fig 4 WB403 improved hyperglycemia of HFD/STZ mice. Mice were treated with different concentration of WB403, vehicle or sitagliptin. FBG (A) and PBG (B) were measured every week during the 8-week treatment period. (C, D) HbA1c levels in serum. Values are mean ± SEM (n = 8). *p<0.05, **p<0.01, ***p<0.001 vs. vehicle group.

[6] = system: ICR mice; assay: 7-day acute toxicity test in ICR mice; details: 6000 mg/kg group after 7-day acute toxicity test
[7] = HFD/STZ mice, 50, 100 mg/kg daily, from first week through 8-week treatment

## CCc1cc(-c2nc(C)c(COCc3ccc(Br)cc3)s2)ccn1 [WB403, 4-(5-((4-bromobenzyloxy)-methyl)-4-methylthiazol-2-yl)-2-ethylpyridine]
[1]
  GLP-1 stimulation in primary enterocytes: outstanding effect in GLP-1 stimulation
[2]
  blood glucose tolerance (OGTT) vs vehicle: significant improvement in blood glucose tolerance
[3]
  blood glucose tolerance (OGTT) vs vehicle: The same results
[4]
  blood glucose tolerance (OGTT) vs vehicle: The same results
[5]; HFD/STZ mice, 8-week treatment
  serum HbA1c levels vs vehicle: decreased significantly
[5]; [7]
  FBG vs vehicle: significantly decreased
  PBG vs vehicle: significantly decreased
[6]
  signs of toxicity in tissue sections (H&E): did not show obvious signs of toxicity
